Measurements: ChEMBL document CHEMBL1133880 (Bioorg Med Chem Lett, 2001)
Residues, ends and D or L forms follow the SMILES beside them. *: point of attachment. Octanoyl = CCCCCCCC(=O)*

Tests used:
[1] = molecular target: T1, Growth hormone secretagogue receptor type 1 (Homo sapiens, UniProt Q92847); test: Binding affinity towards human Growth hormone secretagogue receptor type 1 using competitive binding assay with radiolabeled [35S]-MK-0677 expressed as IC50
[2] = molecular target: T1, Growth hormone secretagogue receptor type 1; test: Functional potency measured as intracellular calcium elevation in Hek-293 cells expressing hGHSR1a; format: cell-based, HEK293

T1 sequence (Q92847 whole entry): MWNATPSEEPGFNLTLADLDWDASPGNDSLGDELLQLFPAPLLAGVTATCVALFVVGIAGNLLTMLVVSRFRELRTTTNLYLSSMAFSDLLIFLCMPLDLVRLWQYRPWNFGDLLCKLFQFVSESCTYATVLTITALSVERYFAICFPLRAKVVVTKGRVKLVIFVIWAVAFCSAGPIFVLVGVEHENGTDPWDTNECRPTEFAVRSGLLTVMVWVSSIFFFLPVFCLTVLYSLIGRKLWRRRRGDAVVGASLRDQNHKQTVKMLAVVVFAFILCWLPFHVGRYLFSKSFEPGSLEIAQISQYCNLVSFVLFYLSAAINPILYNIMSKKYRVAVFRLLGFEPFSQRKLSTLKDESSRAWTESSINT

IC50 [1] [nM] | EC50 [2] [nM] | Compound
128 | 68.2 | CCCCCCCC(=O)OC[C@@H](NC(=O)[C@H](CO)NC(=O)CN)C(=O)N1CCC2(CC1)CN(S(C)(=O)=O)c1ccccc12
889 | 72 | CCCCCCCC(=O)OC[C@H](NC(=O)CN)C(=O)N[C@@H](CO)C(=O)N[C@@H](Cc1ccccc1)C(=O)O (H-GS(Octanoyl)SF-OH)
8.12 | 19.6 | CCCCCCCC(=O)OC[C@@H](NC(=O)C(C)(C)N)C(=O)N1CCC2(CC1)CN(S(C)(=O)=O)c1ccccc12
36.2 | 7.95 | CS(=O)(=O)N1CC2(CCN(C(=O)[C@@H](COCc3ccccc3)NC(=O)[C@H](CO)NC(=O)CN)CC2)c2ccccc21
209 | 69.2 | CS(=O)(=O)N1CC2(CCN(C(=O)[C@@H](COCc3ccccc3)NC(=O)[C@@H](N)CO)CC2)c2ccccc21
829 | 432 | CCCCCCCC(=O)OC[C@@H](NC(=O)[C@@H](N)CO)C(=O)N1CCC2(CC1)CN(S(C)(=O)=O)c1ccccc12
590 | 378 | CCCCCCCC(=O)OC[C@H](NC(=O)C(C)(C)N)C(=O)N1CCC2(CC1)CN(S(C)(=O)=O)c1ccccc12
2670 | 448 | CCCCCCCC(=O)OC[C@H](NC(=O)[C@H](CO)NC(=O)CN)C(=O)N1CCC2(CC1)CN(S(C)(=O)=O)c1ccccc12
